Test results published in US7183430B2, “Compounds which can block the response to chemical substances or thermal stimuli or mediators of inflammation of nociceptors, production method thereof and compositions containing same” (Diverdrugs, S.L., priority 2002, dated 2007).

How the values were obtained:
[1] = tested on: primary trigeminal neuronal cultures; assay: entrance of calcium cation stimulated by capsaicin in neuronal cultures; assay type: cell-based
[2] = tested on: afferent nerve fibers from the knee of the rat; assay: nervous activity caused by capsaicin in afferent nerve fibers from the knee
[3] = acute inflammatory pain model caused by subcutaneous capsaicin (paw lick latency); assay type: in vivo; details: mice, intraperitoneal; for behavioral latency time (paw lick): carrier 20±5 s
Method: The analgesic activity of the products was determined by assessing their effect in the acute inflammatory pain model caused by subcutaneous administration of the capsaicin irritant. Administration of this vanilloid causes a neurogenic inflammation in animals with acute painful burning sensation resulting in thermal and mechanical hyperalgesia. The behavioral latency time to paw lick after intraperitoneal administration of the compounds to mice at different doses was monitored.

[4] = 52° C. hot plate nociception test; assay type: in vivo; details: mice, 10 mg/Kg intraperitoneal, carrier 11.5±2 s
Method: A 52° C. hot plate test was used as a nociception test, where the latency time to paw withdrawal or jump of the animal was monitored. The compounds were intraperitoneally administered to mice at a dose of 10 mg/Kg. The behavioral test was carried out at 30, 60 and 120 minutes after the administration of the compounds.

N=C(N)NCCC[C@H](N)C(=O)N(CCc1ccc(Cl)cc1Cl)CC(=O)N(CCc1ccc(Cl)cc1Cl)CC(N)=O [Example 1]
inhibition of the entrance of calcium cation stimulated by capsaicin [1]: 85%
block of the nervous activity caused by capsaicin [2]: 80%
behavioral latency time (paw lick) ([3]; 2 mg/Kg): 90 ± 10 s
behavioral latency time (paw lick) ([3]; 5 mg/Kg): 190 ± 50 s
behavioral latency time (paw lick) ([3]; 10 mg/Kg): 250 ± 40 s
duration of the behavioral response ([3]; 2 to 10 mg/Kg): decreased as the dose of the compound increased
latency to the first response (paw withdrawal or jump) ([4]; 30 minutes after): 20 ± 4 s
latency to the first response (paw withdrawal or jump) ([4]; 60 minutes after): 18 ± 3 s
latency to the first response (paw withdrawal or jump) ([4]; 120 minutes after): 18 ± 4 s
